Experimental data published in patent US20150315218A1, “SALTS OF PRODRUGS OF PIPERAZINE AND SUBSTITUTED PIPERIDINE ANTIVIRAL AGENTS” (Bristol-Myers Squibb Company, priority 2004, published 2015).

What was measured:
[1] = IV and PO pharmacokinetic studies of prodrug salts (Iab, Ibb, Icb) in the monkey, with historical parent data; format: in vivo, cynomolgus monkeys; settings: monkey; for Tmax: read-out: Tmax (hr), PO
Procedure: The IV and PO studies of Iab were conducted in a crossover fashion in three male cynomolgus monkeys (11±1.2 kg, Charles River Biomedical Research Foundation, Houston, Tex.). There was a two-week washout period between the IV and PO studies.
In the IV study, Iab was infused via the femoral vein at 1.3 mg/kg (free acid, or 1.1 mg/kg of IVa equivalent) over 5 min at a constant rate of 0.1 mL/kg/min. The concentration of the dosing solution was 2.6 mg/mL, and the dosing volume was 0.5 mL/kg. Serial blood samples were collected from the femoral artery before dosing and at 5, 10, 15, 30, 45 min, 1, 2, 4, 6, 8 and 24 hr after dosing.
In the PO study, the monkeys were fasted overnight before dosing. Iab was administered by oral gavage at 7.1 mg/kg (free acid, or 5.6 mg/kg of IVa equivalent). The concentration of the dosing solution was 14.2 mg/mL, and the dosing volume was 0.5 mL/kg. Serial blood samples were collected before dosing and at 15, 30, 45 min, 1, 2, 4, 6, 8 and 24 hr after dosing.
The IV and PO studies of Ibb were conducted in a crossover fashion in three male cynomolgus monkeys (9.9±2.4 kg, Charles River Biomedical Research Foundation, Houston, Tex.). There was a two-week washout period between the IV and PO studies.
The concentration of the dosing solution was 2.7 mg/mL, and the dosing volume was 0.5 mL/kg. Serial blood samples were collected from the femoral artery before dosing and at 5, 10, 15, 30, 45 min, 1, 2, 4, 6, 8 and 24 hr after dosing.
In the PO study, the monkeys were fasted overnight before dosing. […] The concentration of the dosing solution was 5.8 mg/mL, and the dosing volume was 1 mL/kg. Serial blood samples were collected before dosing and at 15, 30, 45 min, 1, 2, 4, 6, 8 and 24 hr after dosing.
The IV and PO studies of Icb were conducted in a crossover fashion in three male cynomolgus monkeys (10±1.6 kg, Charles River Biomedical Research Foundation, Houston, Tex.). There was a two-week washout period between the IV and PO studies.
The concentration of the dosing solution was 2.8 mg/mL, and the dosing volume was 0.5 mL/kg. Serial blood samples were collected from the femoral artery before dosing and at 5, 10, 15, 30, 45 min, 1, 2, 4, 6, 8 and 24 hr after dosing.
In the PO study, the monkeys were fasted overnight before dosing. […] The concentration of the dosing solution was 9.8 mg/mL, and the dosing volume was 0.5 mL/kg. Serial blood samples were collected before dosing and at 15, 30, 45 min, 1, 2, 4, 6, 8 and 24 hr after dosing.

[2] = IV and PO pharmacokinetic studies of prodrug salts (Iab, Ibb, Icb) in the dog, with historical parent data; format: in vivo, beagle dogs; settings: for Tmax: read-out: Tmax (hr), PO; for concentration at 24 hr: read-out: C-24 hr (μM), PO; for Cmax: read-out: Cmax (μM), PO
Procedure: The IV and PO studies of Iab were conducted in a crossover fashion in three male beagle dogs (11±1.1 kg, Marshall Farms USA Inc., North Rose, N.Y.). There was a two-week washout period between the IV and PO studies.
In the IV study, Iab was infused via the cephalic vein at 1.2 mg/kg (free acid, or 0.95 mg/kg of IVa equivalent) over 5 min at a constant rate of 0.1 mL/kg/min. The concentration of the dosing solution was 2.4 mg/mL, and the dosing volume was 0.5 mL/kg. Serial blood samples were collected from the femoral artery before dosing and at 5, 10, 15, 30, 45 min, 1, 2, 4, 6, 8 and 24 hr after dosing.
In the PO study, the dogs were fasted overnight before dosing. Iab was administered by oral gavage at 6.6 mg/kg (free acid, or 5.2 mg/kg of IVa equivalent). The concentration of the dosing solution was 13.2 mg/mL, and the dosing volume was 0.5 mL/kg. Serial blood samples were collected before dosing and at 15, 30, 45 min, 1, 2, 4, 6, 8 and 24 hr after dosing.
The IV and PO studies of Ibb were conducted in male beagle dogs (10±0.78 kg, Marshall Farms USA Inc., North Rose, N.Y.). Three dogs were used in each study. Of the three dogs, two same dogs were used for both IV and PO studies. There was a two-week washout period between the IV and PO studies.
The concentration of the dosing solution was 2.6 mg/mL, and the dosing volume was 0.5 mL/kg. Serial blood samples were collected from the femoral artery before dosing and at 5, 10, 15, 30, 45 min, 1, 2, 4, 6, 8 and 24 hr after dosing.
In the PO study, the dogs were fasted overnight before dosing. […] The concentration of the dosing solution was 7.0 mg/mL, and the dosing volume was 1 mL/kg. Serial blood samples were collected before dosing and at 15, 30, 45 min, 1, 2, 4, 6, 8 and 24 hr after dosing.
The IV and PO studies of Icb were conducted in a crossover fashion in three male beagle dogs (12±2.8 kg, Marshall Farms USA Inc., North Rose, N.Y.). There was a two-week washout period between the IV and PO studies.
In the IV study, Icb was infused via the cephalic vein at 1.3 mg/kg (free acid, or 1.0 mg/kg of IVe equivalent) over 5 min at a constant rate of 0.1 mL/kg/min. The concentration of the dosing solution was 2.6 mg/mL, and the dosing volume was 0.5 mL/kg. Serial blood samples were collected from the femoral artery before dosing and at 5, 10, 15, 30, 45 min, 1, 2, 4, 6, 8 and 24 hr after dosing.
In the PO study, the dogs were fasted overnight before dosing. […] The concentration of the dosing solution was 12 mg/mL, and the dosing volume was 0.5 mL/kg. Serial blood samples were collected before dosing and at 15, 30, 45 min, 1, 2, 4, 6, 8 and 24 hr after dosing.

[3] = oral prodrug vs historical parent
[4] = male, beagle, plasma, 6.6 mg/kg, after oral prodrug, analyte = label, ND = not detected
[5] = plasma, historical parent, PO 5 mg/kg

COc1ncc(OC)c2c(C(=O)C(=O)N3CCN(C(=O)c4ccccc4)CC3)c[nH]c12 [IVa, N-(benzoyl)-N′-[(4,7-dimethoxy-6-azaindol-3-yl)-oxoacetyl]piperazine] gave an AUC ([1]; cynomolgus monkey, plasma, historical parent, IV 1 mg/kg, read-out: AUCtot (μM · hr), IV) of 9.2 ± 0.53 µM·h, a clearance ([1]; cynomolgus monkey, plasma, historical parent, IV 1 mg/kg, read-out: CLtot (mL/min/kg), IV) of 4.3 ± 0.26 mL/min/kg and an MRT ([1]; cynomolgus monkey, plasma, historical parent, IV 1 mg/kg, read-out: MRT (hr), IV) of 2.4 ± 0.15 h. The Vd ([1]; cynomolgus monkey, plasma, historical parent, IV 1 mg/kg, read-out: Vdss (L/kg), IV) was 0.63 ± 0.39 L/kg, the half-life ([1]; cynomolgus monkey, plasma, historical parent, IV 1 mg/kg, read-out: t1/2 (hr), IV (converted)) was 4.7 ± 0.31 h and the AUC ([1]; cynomolgus monkey, plasma, historical parent, PO 5 mg/kg, read-out: AUCtot (μM · hr), PO) was 27 ± 2.9 µM·h. For the same compound, the bioavailability ([1]; cynomolgus monkey, plasma, historical parent, PO 5 mg/kg, read-out: Bioavailability (%)) was 60%, the concentration at 24 hr ([1]; cynomolgus monkey, plasma, historical parent, PO 5 mg/kg, read-out: C-24 hr (μM), PO) was 0.074 ± 0.032 µM and the Cmax ([1]; cynomolgus monkey, plasma, historical parent, PO 5 mg/kg, read-out: Cmax (μM), PO) was 5.8 ± 1.2 µM. The Tmax ([1]; cynomolgus monkey, plasma, historical parent, PO 5 mg/kg) was 2.7 h, the half-life ([1]; cynomolgus monkey, plasma, historical parent, PO 5 mg/kg, read-out: t1/2 (hr), PO (converted)) was 4.2 ± 0.64 h and the AUC ([1]; male, cynomolgus monkey, plasma, after IV prodrug (~1.1 mg/kg parent equivalent), analyte = label, read-out: AUCtot (μM · hr), IV) was 7.1 ± 1 µM·h. The half-life ([1]; male, cynomolgus monkey, plasma, after IV prodrug, analyte = label, read-out: t1/2 (hr), IV (converted)) was 4.8 ± 1.9 h, the bioavailability ([1]; male, cynomolgus monkey, plasma, oral prodrug, read-out: Bioavailability (%) of parent from prodrug) was 66% and the Tmax ([1]; male, cynomolgus monkey, plasma, parent after oral prodrug (~4-6 mg/kg parent equivalent)) was 0.83 h. The half-life ([1]; male, cynomolgus monkey, plasma, parent after oral prodrug, read-out: t1/2 (hr), PO (converted)) was 4.8 ± 1.3 h, the “IV AUC Ratio of parent (formed from prodrug vs historical parent study)” value [1] was 0.70 and the “PO AUC Ratio of parent” value [1, 3] was 1.1. For the same compound, the “IV AUC Ratio of parent (formed from prodrug vs historical parent study)” value [2] was 0.80, the “Bioavailability (%)” value ([2]; beagle, in vivo, po, 5 mg/kg) was 57% and the Tmax ([2]; beagle, plasma, historical parent, PO 5 mg/kg) was 2.9 h. For the same compound, the AUC ([2]; male, beagle, plasma, 6.6 mg/kg, after oral prodrug, analyte = label, ND = not detected, read-out: AUCtot (μM · hr), PO) was 83 ± 16 µM·h, the concentration at 24 hr [2, 4] was 0.26 ± 0.12 µM and the Cmax [2, 4] was 14 ± 1.3 µM. It also gave a half-life ([2]; male, beagle, plasma, 6.6 mg/kg, parent after oral prodrug, read-out: t1/2 (hr), PO (converted)) of 4.1 ± 0.52 h, an AUC ([2]; male, beagle, plasma, after IV prodrug (~1 mg/kg parent equivalent), analyte = label, read-out: AUCtot (μM · hr), IV) of 13 ± 2.2 µM·h and a half-life ([2]; male, beagle, plasma, after IV prodrug, analyte = label, read-out: t1/2 (hr), IV (converted)) of 5.2 ± 1 h. The bioavailability ([2]; male, beagle, plasma, oral prodrug, read-out: Bioavailability (%) of parent from prodrug) was 94%, the Tmax ([2]; male, beagle, plasma, parent after oral prodrug (~5 mg/kg parent equivalent)) was 0.25 h and the “PO AUC Ratio of parent” value [2, 3] was 1.7. It also gave an AUC ([2]; plasma, historical parent, IV 1 mg/kg, read-out: AUCtot (μM · hr), IV) of 17 ± 3.5 µM·h, a clearance ([2]; plasma, historical parent, IV 1 mg/kg, read-out: CLtot (mL/min/kg), IV) of 2.4 ± 0.43 mL/min/kg and an MRT ([2]; plasma, historical parent, IV 1 mg/kg, read-out: MRT (hr), IV) of 3.3 ± 0.71 h. The Vd ([2]; plasma, historical parent, IV 1 mg/kg, read-out: Vdss (L/kg), IV) was 0.45 ± 0.083 L/kg, the half-life ([2]; plasma, historical parent, IV 1 mg/kg, read-out: t1/2 (hr), IV (converted)) was 2.6 ± 1.2 h and the AUC ([2]; plasma, historical parent, PO 5 mg/kg, read-out: AUCtot (μM · hr), PO) was 47 ± 7.2 µM·h. It also gave a concentration at 24 hr [2, 5] of 0.15 ± 0.093 µM, a Cmax [2, 5] of 6.5 ± 1.2 µM and a half-life ([2]; plasma, historical parent, PO 5 mg/kg, read-out: t1/2 (hr), PO (converted)) of 3.8 ± 0.81 h.
